# According to ChEMBL document CHEMBL1129101 (Bioorg Med Chem Lett, 1996):
# pIC50: −log10 of the molar value.
# How the values were obtained:
# [1] = biological target: T1, Gastrin/cholecystokinin type B receptor (Mus musculus, UniProt P56481); assay: Inhibitory activity against Cholecystokinin type B receptor
# T1 sequence (P56481 whole entry): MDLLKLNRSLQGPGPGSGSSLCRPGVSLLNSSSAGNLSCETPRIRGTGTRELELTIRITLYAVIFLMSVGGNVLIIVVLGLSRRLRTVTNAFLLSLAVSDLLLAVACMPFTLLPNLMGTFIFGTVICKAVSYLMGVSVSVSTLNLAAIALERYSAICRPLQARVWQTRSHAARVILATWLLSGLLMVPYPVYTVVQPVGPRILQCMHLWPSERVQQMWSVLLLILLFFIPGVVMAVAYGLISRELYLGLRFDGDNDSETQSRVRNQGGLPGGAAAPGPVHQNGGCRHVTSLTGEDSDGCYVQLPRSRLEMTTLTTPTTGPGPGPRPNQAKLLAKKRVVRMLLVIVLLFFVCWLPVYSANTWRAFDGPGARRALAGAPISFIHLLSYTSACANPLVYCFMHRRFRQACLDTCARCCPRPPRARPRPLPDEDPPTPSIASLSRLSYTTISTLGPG
# [2] = biological target: T2, Cholecystokinin receptor type A (Mus musculus, UniProt O08786); assay: Inhibitory activity against Cholecystokinin type A receptor
# T2 sequence (O08786 whole entry): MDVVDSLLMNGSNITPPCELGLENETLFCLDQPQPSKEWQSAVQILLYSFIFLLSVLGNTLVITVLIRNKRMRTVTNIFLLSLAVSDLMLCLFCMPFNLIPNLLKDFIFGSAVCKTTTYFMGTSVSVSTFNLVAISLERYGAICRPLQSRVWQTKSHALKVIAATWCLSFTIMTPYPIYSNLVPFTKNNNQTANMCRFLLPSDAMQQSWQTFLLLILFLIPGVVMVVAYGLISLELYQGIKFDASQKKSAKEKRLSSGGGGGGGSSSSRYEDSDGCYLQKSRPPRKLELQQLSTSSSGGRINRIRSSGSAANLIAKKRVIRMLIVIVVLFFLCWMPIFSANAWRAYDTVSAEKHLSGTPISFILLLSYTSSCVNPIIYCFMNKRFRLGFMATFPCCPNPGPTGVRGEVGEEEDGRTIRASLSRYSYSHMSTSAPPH
# [3] = biological target: Cholecystokinin receptor (Mus musculus) (UniProt O08786+P56481); assay: Ratio of IC50(gastrin) to IC50(CCK-A); format: protein assay
# [4] = biological target: Histamine H2 receptor (Rattus norvegicus, UniProt P25102); assay: Antagonistic activity by inhibition histamine H2 receptor from rats.; format: functional; conditions: read-out: pA2 (converted)
# Sequence of Histamine H2 receptor (P25102 whole entry): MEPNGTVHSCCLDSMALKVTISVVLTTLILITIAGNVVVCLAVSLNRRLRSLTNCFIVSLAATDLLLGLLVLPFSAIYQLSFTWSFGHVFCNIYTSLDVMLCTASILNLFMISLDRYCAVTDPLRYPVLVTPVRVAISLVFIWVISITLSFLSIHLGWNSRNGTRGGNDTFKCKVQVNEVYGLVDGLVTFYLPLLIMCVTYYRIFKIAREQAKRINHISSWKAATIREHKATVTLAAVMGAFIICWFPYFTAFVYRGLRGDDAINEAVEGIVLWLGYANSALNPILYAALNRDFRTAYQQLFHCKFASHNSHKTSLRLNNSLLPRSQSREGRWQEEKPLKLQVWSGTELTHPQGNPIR
pIC50 [1],pIC50 [2],Ratio [3],Kb [4] [nM],Compound
6.52,5.89,35,794,CN1C(=O)[C@H](NC(=O)Nc2cccc(CCOC(=O)NCCCC(=O)NCCSCc3csc(N=C(N)N)n3)c2)N=C(c2ccccc2)c2ccccc21
6.03,5.36,289,3160,Cc1cccc(NC(=O)N[C@@H]2N=C(c3ccccc3)c3ccccc3N(CCOC(=O)NCCCC(=O)NCCSCc3csc(N=C(N)N)n3)C2=O)c1
5.40,5.34,34,1000,Cc1cccc(NC(=O)N[C@@H]2N=C(c3ccccc3)c3ccccc3N(CCOC(=O)NCCCC(=O)NCCCOc3cccc(CN4CCCCC4)c3)C2=O)c1
7.03,5.38,156,1260,CN1C(=O)[C@H](NC(=O)Nc2cccc(CCOC(=O)NCCC(=O)NCCCOc3cccc(CN4CCCCC4)c3)c2)N=C(c2ccccc2)c2ccccc21
6.40,5.78,183,316,CN1C(=O)[C@H](NC(=O)Nc2cccc(COC(=O)NCCCN3CCN(C(=O)CNCCCOc4cccc(CN5CCCCC5)c4)CC3)c2)N=C(c2ccccc2)c2ccccc21
7.35,6.13,106,631,CN1C(=O)[C@H](NC(=O)Nc2cccc(COC(=O)NCCN3CCN(C(=O)CNCCCOc4cccc(CN5CCCCC5)c4)CC3)c2)N=C(c2ccccc2)c2ccccc21
6.70,5.21,555,794,CN1C(=O)[C@H](NC(=O)Nc2cccc(COC(=O)NCC(=O)NCCCOc3cccc(CN4CCCCC4)c3)c2)N=C(c2ccccc2)c2ccccc21

# Further lines, the compound ahead of its results:
Compound,pIC50 [1],pIC50 [2],Ratio [3],Kb [4] [nM]
CN1C(=O)[C@H](NC(=O)Nc2cccc(COC(=O)NCCCC(=O)NCCCOc3cccc(CN4CCCCC4)c3)c2)N=C(c2ccccc2)c2ccccc21,7.19,5.44,138,251
CN1C(=O)[C@H](NC(=O)Nc2cccc(COC(=O)NCCNC(=O)CC(=O)NCCCOc3cccc(CN4CCCCC4)c3)c2)N=C(c2ccccc2)c2ccccc21,6.99,5.09,432,158
CN1C(=O)[C@H](NC(=O)Nc2cccc(COC(=O)NCCC(=O)NCCCOc3cccc(CN4CCCCC4)c3)c2)N=C(c2ccccc2)c2ccccc21,6.80,6.51,9,316
CC(C)(C)OC(=O)NCCCC(=O)NCCSCc1csc(N=C(N)N)n1,–,–,–,50.1
CC(C)(C)OC(=O)NCCCC(=O)NCCCOc1cccc(CN2CCCCC2)c1,–,–,–,15.8
CN1C(=O)[C@H](NC(=O)Nc2cccc(CCOC(=O)NCCCC(=O)NCCCOc3cccc(CN4CCCCC4)c3)c2)N=C(c2ccccc2)c2ccccc21,6.74,5.30,217,398
Cc1cccc(NC(=O)N[C@@H]2N=C(c3cccc(OC(=O)NCCCC(=O)NCCCOc4cccc(CN5CCCCC5)c4)c3)c3ccccc3N(C)C2=O)c1,6.34,5.42,17,501
